Assay [1] deals with HepG2 (human liver cancer cells). The note with it: 24 h. As for the experimental part:
(§1) Finally, the anti-austerity activity on two other different cancer cell lines was studied. Preferential cytotoxicity was assessed in a nutrient-deprived medium. Esumi et al. hypothesized that tolerance to nutrient deprivation as well as angiogenesis might be an important factor in tumor progression under hypovascular condition.
(§2) Briefly, MIA PaCa-2, HepG2 and MCF-7 Cells (2 × 10^4 cells/well) were seeded in 96-well plates and incubated in fresh DMEM. The cells were washed with Dulbecco’s phosphate-buffered saline (PBS) before the medium was replaced with DMEM or NDM containing serial dilutions of the test samples. After 24 h of incubation, the cells were washed with PBS, and 100 μL of DMEM containing 10% WST-8 cell counting kit solution was added to each well. After 3 h of incubation, the absorbance was measured at 450 nm. Cell viability was calculated from the mean values for three wells. The preferential cytotoxicity was expressed as the concentration at which 50% of cells died preferentially in NDM (PC50).

In assay [2] the test system is MCF-7 (human breast cancer cells). As to conditions: 24 h. As for the experimental part: as §1, §2
For assay [3], the system named is human pancreatic cancer cell line MIA PaCa-2. As to conditions: 24 h. As for the experimental part:
Data are presented as preferential cytotoxicity (PC50) values, which represent the concentration that kills 50% of cancer cells in a nutrient-deprived medium (NDM) without any toxicity in a nutrient-rich medium DMEM (Dulbecco’s Modified Eagle Medium).
as §2
Pancreatic cancer cells (MIA PaCa-2 cells) were kindly provided by Dr. Suresh Awale, an Associate Professor at Institute of Natural Medicine, University Toyama, Toyama, Japan. MIA PaCa-2 (RBRC-RCB2094), human pancreatic cancer cell lines were purchased from Riken BRC cell bank.

A further assay has as its system MIA PaCa-2 cells. Nature of the assay: Time-lapse live imaging under NDM. The note with it: 10 μM in NDM, 37 °C, 5% CO2, imaged 24 h. Type of assay: cell-based, human. As for the experimental part: Thus, more detailed studies were performed on the major compound theonellapeptolide IId (4). Its effect on morphology status of MIA PaCa-2 cells under starvation condition was studied using a double-staining assay with EB (ethidium bromide) and AO (acridine orange). The membranes of dead or dying cells are penetrated by EB and staining in red while living cells are stained by AO, a cell-membrane-permeable dye emitting bright green fluorescence. Both AO and EB stains are known as DNA-intercalating agents. During cell death, EB and AO enter into the cell after the integrity of the cell membrane is disrupted, which facilitates the emission of orange fluorescence. In this study, MIA PaCa-2 cells treated with 5 and 10 μM of theonellapeptolide IId (4) were incubated in starvation condition (NDM) for 24 h, and stained with the EB and AO dyes. In Figure 6A, treatment with 4 led to a dose-dependent increase in EB-stained cells emitting red fluorescence and showing drastic alteration of cell morphology. […] To show the details of cell death in real time, live evidence of the anticancer potential of 4 was studied. A time-lapse live imaging anti-pancreatic cancer experiment under NDM condition was performed for the first time in a multi position in the dish, for monitoring the effect of 4. Moreover, MIA PaCa-2 cells were treated with 10 μM of compound 4 in NDM and incubated at 37 °C at 5% CO2. Real-time anti-austerity potential tracking of 4 showing morphological changes in MIA PaCa-2 cells under NDM was monitored using a Nikon sCMOS camera oxford instrument, Hamamatsu Photonics/Ti-E, for 24 h. Images were captured every 10 min by rotating at several fixed positions in the dish under the phase contrast mode on a CCD Camera imaging system for 24 h. Treatment with 4 under NDM inhibited cell mobility immediately within 60 min and altered morphology of MIA PaCa-2 cells after 4 h was observed, then cell death started after 8 h, finally in 12 h complete cell death was observed (Figure 7, Movies S1 and S2, Supporting Information). In the control, MIA PaCa-2 cells survived 24 h until the end of the experiment in the NDM (Figure 7). Thus, the result of this study provided the first simultaneous multi-site live evidence of the anti-pancreatic cancer therapeutic potential of the compound theonellapeptolide IId (4) against MIA PaCa-2 cells as marine-based anti-austerity agents. […]
Real-time anti-austerity potential tracking anti-pancreatic cancer activity of 4 by showing morphological changes in MIA PaCa-2 cells under NDM was monitored using a Nikon sCMOS camera Oxford instrument, Hamamatsu Photonics/Ti-E, for 24 h. […]

Where two headings read alike, the source gives them in different places. Where a SMILES comes first, the peptide text is derived from it. Bridges are numbered along the chain shown (N, C = ends). [ ]: non-standard residue; d: D form. The star is where a group is joined. dNMeaIle = CC[C@H](C)[C@@H](NC)C(=O)O; d(aIle) = CC[C@H](C)[C@@H](N)C(=O)O; NMeI = CC[C@H](C)[C@H](NC)C(=O)O; dNMeL = CN[C@H](CC(C)C)C(=O)O; NMeV = CN[C@H](C(=O)O)C(C)C; Methoxyacetyl = COCC(=O)*; βAla = NCCC(=O)O

Take `CC[C@H](C)[C@H]1C(=O)NCCC(=O)N[C@H]([C@@H](C)CC)C(=O)N(C)[C@@H](C(C)C)C(=O)N[C@@H](C)C(=O)NCCC(=O)N[C@H](CC(C)C)C(=O)N(C)[C@H]([C@@H](C)CC)C(=O)O[C@H](C)[C@H](NC(=O)[C@@H](CC(C)C)N(C)C(=O)[C@@H](NC(=O)COC)C(C)C)C(=O)NCCC(=O)N[C@H](CC(C)C)C(=O)N1C` [Compound 4, theonellapeptolide IId] (Methoxyacetyl-V[dNMeL]T[βAla][dL][NMeI][βAla][d(aIle)][NMeV]A[βAla][dL][dNMeaIle]; ester 3-C): the IC50 was above 100 µM in assay [1] (read-out: IC50 in DMEM, HepG2, nutrient-rich DMEM, WST-8, absorbance 450 nm, mean of three wells); above 100 µM in assay [1] (read-out: PC50 in NDM, HepG2, preferential cytotoxicity, nutrient-deprived medium (NDM), WST-8, mean of three wells); above 100 µM in assay [2] (read-out: IC50 in DMEM, MCF7, nutrient-rich DMEM, WST-8, absorbance 450 nm, mean of three wells); above 100 µM in assay [2] (read-out: PC50 in NDM, MCF7, preferential cytotoxicity, nutrient-deprived medium (NDM), WST-8, mean of three wells); 38.2 µM in assay [3] (read-out: IC50 in DMEM, MIA PaCa-2, nutrient-rich DMEM, WST-8, absorbance 450 nm, mean of three wells); 7.8 µM in assay [3] (read-out: PC50 in NDM, MIA PaCa-2, preferential cytotoxicity, nutrient-deprived medium (NDM), WST-8, mean of three wells). Moreover, the “time after which altered cell morphology was observed” value with MIA PaCa-2 cells came to 4 h. The “time after which cell death started” value with MIA PaCa-2 cells came to 8 h. In addition, the “time to complete cell death” value with MIA PaCa-2 cells was 12 h. For the same molecule, in the assay on MIA PaCa-2 cells, the “time to inhibition of cell mobility” value is at most 60 min.
